The numbers were not newly measured in patent US9949928B2, “Biodegradable copolymers, systems including the copolymers, and methods of forming and using same” (The Regents of the University of Colorado, a body corporate, priority 2013, dated 2018), which cites them from elsewhere.

For this series the following is noted: cited from earlier work.

SMILES strings stand for the structures.

For orientation: log P means a log measure of how a compound divides between an organic and an aqueous phase. With `CC1(C)O[C@@H]2C[C@H]3[C@@H]4CCC5=CC(=O)C=C[C@]5(C)[C@@]4(F)[C@@H](O)C[C@]3(C)[C@]2(C(=O)CO)O1` [triamcinolone acetonide], the lipophilicity (log P) is listed as 1.16.
